Assay results: patent US7713969B2, “Compositions and methods for treatment of cancer” (ArQule, Inc., priority 2005, dated 2010)

Columns and labels:
Assay in all cases: Cell viability MTS assay
Format in all cases: cell-based, human
K562 = test system: K562
Description: (§1) Cell viability was determined by measuring the activity of dehydrogenase enzymes in metabolically active cells using a tetrazolium compound, MTS. The assay was performed as described in Promega Technical Bulletin No. 169 (CellTiter 96 Aqueous Non-Radioactive Cell Proliferation Assay). Thirteen human cancer cell lines were assayed (see, e.g., Table 1). Cells were maintained at 37° C., 5% CO2. Adherent cells were maintained DMEM media (4.5 g/L glucose) supplemented with 15% heat-inactivated FBS, 10 mM L-glutamine, and 10 mM Hepes pH 7.5. Suspension cells were maintained in RPMI 1640 media, supplemented with 10% heat-inactivated FBS and 10 mM Hepes pH 7.5. Briefly, cells were seeded in 96-well plates as set forth in Table 1 and incubated for 16-24 hours. Candidate compounds were serially diluted in DMSO, further diluted in cell culture media, and then added to cells (final DMSO concentration of 0.33%). Cells were incubated in the presence of candidate compound for 72 hours. MTS stock solution (MTS 2 gm/L, PMS […] in PBS) was added to the cells (final concentration MTS […] and PMS 7.67 mg/L) and incubated for 4 hours. SDS was added to a final concentration of 1.4% and absorbance at 490 nm was measured within two hours using a platereader. The IC50 was defined as the concentration of compound that results in a 50% reduction in the number of viable cells as compwered to control wells treated with DMSO only (0.33%) and was calculated using non-linear regression analyswas. IC50 values were given in Table 2 for the compounds listed.

DU-145 = test system: DU-145
Description: as §1

A549 = test system: A549
Description: as §1

HT29 = test system: HT29
Description: as §1

HCT-116 = test system: HCT-116
Description: as §1

SK-MEL-28 = details: Homo sapiens, SK-MEL-28, 72 hours with compound
Description: as §1

MDA-MB-231 = test system: MDA-MB-231
Description: as §1

PC-3 = details: Homo sapiens, PC-3, 72 hours with compound
Description: as §1

MCF7 = details: Homo sapiens, MCF7, 72 hours with compound
Description: as §1

SKOV-3 = details: Homo sapiens, SK-OV-3, 72 hours with compound
Description: as §1

[1] = Homo sapiens, K562, 72 hours with compound
[2] = Homo sapiens, MDA-MB-231, 72 hours with compound
[3] = Homo sapiens, DU-145, 72 hours with compound
[4] = Homo sapiens, A549, 72 hours with compound
[5] = Homo sapiens, HT-29, 72 hours with compound
[6] = Homo sapiens, HCT-116, 72 hours with compound

Compound	IC50 (SK-MEL-28) [µM]	IC50 (MDA-MB-231; [2]) [µM]	IC50 (PC-3) [µM]	IC50 (MCF7) [µM]	IC50 (HT29; [5]) [µM]	IC50 (SKOV-3) [µM]	other results
3-(5,6-Dihydro-4H-pyrrolo[3,2,1-ij]quinolin-1-yl)-4-(2,6-dichloro-phenyl)-pyrrole-2,5-dione [Example 20]	–	–	–	–	–	–	IC50 (K562; 72 hours with compound): 2.47 µM; IC50 (DU-145; 72 hours with compound): 31.1 µM; IC50 (A549; 72 hours with compound): 38.8 µM; IC50 (HT29; 72 hours with compound): > 100 µM; IC50 (HCT-116; 72 hours with compound): 4.96 µM
O=C1NC(=O)[C@@H](c2cn3c4c(cccc24)CCC3)[C@H]1c1ccc(F)cc1Cl (racemic) [Example 54, (±)-Cis-3-(5,6-dihydro-4H-pyrrolo[3,2,1-ij]quinolin-1yl)-4-(2-chloro-4-fluoro-phenyl)-pyrrolidine-2,5-dione]	25.2	–	11.5	> 100	8.78	6.88	IC50 (K562; [1]): 3.37 µM; IC50 (DU-145; [3]): 21.1 µM; IC50 (A549; [4]): 22.1 µM; IC50 (HCT-116; [6]): 7.63 µM
CN1C(=O)[C@H](c2cn(C)c3ccccc23)[C@H](c2cn3c4c(cccc24)CCC3)C1=O (racemic) [Example 61, (±)-cis-3-(5,6-dihydro-4H-pyrrolo[3,2,1-ij]quinolin-1-yl)-4(1-methylindol-3-yl)-1-methylpyrrolidine-2,5-dione]	> 100	> 100	> 100	> 100	> 100	37.6	IC50 (K562; [1]): 18.7 µM; IC50 (DU-145; [3]): > 100 µM; IC50 (A549; [4]): 78.9 µM; IC50 (HCT-116; [6]): 96.2 µM
O=C1NC(=O)C(c2cn3c4c(cccc24)CCC3)=C1c1ccccn1 [Example 9, 3-(5,6-Dihydro-4H-pyrrolo[3,2,1-ij]quinolin-1-yl)-4-pyridin-2-yl-pyrrole-2,5-dione]	–	> 100	–	–	> 100	–	–
COc1ccc(C2=C(c3cn4c5c(cccc35)CCC4)C(=O)NC2=O)cc1 [Example 10, 3-(5,6-Dihydro-4H-pyrrolo[3,2,1-ij]quinolin-1-yl)-4(4-methoxy-phenyl)-pyrrole-2,5-dione]	–	> 100	–	–	> 100	–	–
O=C1NC(=O)C(c2cn3c4c(cccc24)CCC3)=C1c1ccc2c(c1)OCO2 [Example 11, 3-Benzo[1,3]dioxol-5-yl-4-(5,6-dihydro-4H-pyrrolo[3,2,1-ij]quinolin-1-yl)-pyrrole-2,5-dione]	–	> 100	–	–	> 100	–	–
COc1ccc(OC)c(C2=C(c3cn4c5c(cccc35)CCC4)C(=O)NC2=O)c1 [Example 17, 3-(5,6-Dihydro-4H-pyrrolo[3,2,1-ij]quinolin-1-yl)-4(2,5-dimethoxy-phenyl)-pyrrole-2,5-dione]	–	> 100	–	–	> 100	–	–
O=C1NC(=O)C(c2cn3c4c(cccc24)CCC3)=C1c1ccc(F)cc1Cl [Example 18, 3-(5,6-Dihydro-4H-pyrrolo[3,2,1-ij]quinolin-1-yl)-4-(2-chloro-4-fluoro-phenyl)-pyrrole-2,5-dione]	–	> 100	–	–	> 100	–	–
O=C1NC(=O)C(c2cn3c4c(cccc24)CN(C(=O)OCc2ccccc2)CC3)=C1c1c[nH]c2ccccc12 [Example 73, 7-[4-(1H-indol-3-yl)-2,5-dioxo-2,5-dihydro-1H-pyrrol-3-yl]-3,4-dihydro-1H-[1.4]diazepino[6,7,1-hi]indole-2-carboxylic acid benzyl ester]	–	–	–	–	–	–	IC50 (MDA-MB-231; 72 hours with compound): > 100 µM; IC50 (HT29; 72 hours with compound): > 100 µM

More lines, main results first:

IC50 (SK-MEL-28) [µM]	IC50 (MDA-MB-231; [2]) [µM]	IC50 (PC-3) [µM]	IC50 (MCF7) [µM]	IC50 (HT29; [5]) [µM]	IC50 (SKOV-3) [µM]	Compound	other results
> 100	> 100	> 100	> 100	> 100	57.4	COc1ccc(OC)c([C@H]2C(=O)NC(=O)[C@H]2c2cn3c4c(cccc24)CCC3)c1 (racemic) [Example 53, (±)-Cis-3-(5,6-dihydro-4H-pyrrolo[3,2,1-ij]quinolin-1yl)-4-(2,5-dimethoxyphenyl)-pyrrolidine-2,5-dione]	IC50 (K562; [1]): 36.3 µM; IC50 (DU-145; [3]): > 100 µM; IC50 (A549; [4]): > 100 µM; IC50 (HCT-116; [6]): > 100 µM
> 100	15.5	12.9	> 100	13.1	11.6	O=C1NC(=O)[C@@H](c2cn3c4c(cccc24)CCC3)[C@H]1c1cccc(Cl)c1 (racemic) [Example 55, (±)-Cis-3-(5,6-dihydro-4H-pyrrolo[3,2,1-ij]quinolin-1yl)-4-(3-chlorophenyl)-pyrrolidine-2,5-dione]	IC50 (K562; [1]): 3.47 µM; IC50 (DU-145; [3]): 35.7 µM; IC50 (A549; [4]): 13.1 µM; IC50 (HCT-116; [6]): 12.1 µM
–	81.6	–	–	66.5	–	O=C1NC(=O)C(c2cn3c4c(cccc24)CCC3)=C1c1ccccc1 [Example 12, 3-(5,6-Dihydro-4H-pyrrolo[3,2,1-ij]quinolin-1-yl)-4-phenyl-pyrrole-2,5-dione]	–
–	78.8	–	–	> 100	–	O=C1NC(=O)C(c2cn3c4c(cccc24)CCC3)=C1c1cc2ccccc2s1 [Example 13, 3-Benzo[b]thiophen-2-yl-4-(5,6-dihydro-4H-pyrrolo[3,2,1-ij]quinolin-1-yl)-pyrrole-2,5-dione]	–
–	98.2	–	–	71.6	–	O=C1NC(=O)C(c2cn3c4c(cccc24)CCC3)=C1c1cccc(Oc2ccccc2)c1 [Example 14, 3-(5,6-Dihydro-4H-pyrrolo[3,2,1-ij]quinolin-1-yl)-4-(3-phenoxy-phenyl)-pyrrole-2,5-dione]	–
–	43.6	–	–	75.8	–	O=C1NC(=O)C(c2cn3c4c(cccc24)CCC3)=C1c1cccc(Cl)c1 [Example 15, 3-(5,6-Dihydro-4H-pyrrolo[3,2,1-ij]quinolin-1-yl)-4-(3-chloro-phenyl)-pyrrole-2,5-dione]	–
–	21.5	–	–	40.9	–	O=C1NC(=O)C(c2cn3c4c(cccc24)CCC3)=C1c1ccccc1Cl [Example 16, 3-(5,6-Dihydro-4H-pyrrolo[3,2,1-ij]quinolin-1-yl)-4-(2-chloro-phenyl)-pyrrole-2,5-dione]	–
39.6	70.5	96.2	> 100	46.8	36.2	O=C1NC(=O)C(c2cn3c4c(cccc24)CCC3)=C1c1cccc2ccccc12 [Example 19, 3-(5,6-Dihydro-4H-pyrrolo[3,2,1-ij]quinolin-1-yl)-4-naphthalene-1-yl-pyrrole-2,5-dione]	IC50 (K562; [1]): 14 µM; IC50 (DU-145; [3]): > 100 µM; IC50 (A549; [4]): 41 µM; IC50 (HCT-116; [6]): 26.2 µM
74	50.3	82.7	> 100	–	23.8	O=C1NC(=O)C(c2cn3c4c(cccc24)CCC3)=C1c1c(Cl)cccc1Cl [Example 20, 3-(5,6-Dihydro-4H-pyrrolo[3,2,1-ij]quinolin-1-yl)-4-(2,6-dichloro-phenyl)-pyrrole-2,5-dione]	–
> 100	30	22.2	> 100	56.8	30.2	O=C1NC(=O)C(c2cn3c4c(cccc24)CCC3)=C1c1ccccc1Br [Example 21, 3-(5,6-Dihydro-4H-pyrrolo[3,2,1-ij]quinolin-1-yl)-4-(2-bromo-phenyl)-pyrrole-2,5-dione]	IC50 (K562; [1]): 6.42 µM; IC50 (DU-145; [3]): 21.8 µM; IC50 (A549; [4]): 28.6 µM; IC50 (HCT-116; [6]): 5.44 µM
–	59.4	–	–	> 100	–	O=C1NC(=O)C(n2ccc3ccccc32)=C1c1cn2c3c(cccc13)CCC2 [Example 22, 3-(5,6-Dihydro-4H-pyrrolo[3,2,1-ij]quinolin-1-yl)-4-indol-1-yl-pyrrole-2,5-dione]	–
–	28.7	–	–	76.8	–	O=C1NC(=O)C(c2cn3c4c(cccc24)CCC3)=C1c1cccnc1 [Example 23, 3-(5,6-Dihydro-4H-pyrrolo[3,2,1-ij]quinolin-1-yl)-4-pyridine-3-yl-pyrrole-2,5-dione]	–
